Where a SMILES comes first, the peptide text is derived from it.
Experiments:
[1] = tested on: three human cancer cell lines (breast, prostate, or kidney); assay: Sulforhodamine cytostatic 6-day assay, cyclic versus linear peptide; format: cell-based; settings: linear versus cyclic configuration
Description: (§1) FIG. 3 presents exemplary data showing the growth suppressive activities of the oligomeric forms of P149, cyclic versus linear, are depicted in various in vitro and in vivo models. Biological activity was determined by three growth-dependent bioassays, namely; • Panel-A and A1) an immature rodent uterine bioassay; • Panel-B and B 1) an in vitro MCF-7 foci assay; • Panel-C and C1) an in vitro tumor cell cytostatic assessment. […] See text for details. Scrambled peptide=P327.
GIP is a major participant in tumor cell surface interactions. GIP is a potent suppressor of tumor proliferation in both rodent and human cell models. GIP's biological activity is dependent on its oligomeric state, specifically its trimer (linear) versus monomer (cyclic) configuration. Biological activity was determined by three growth-dependent bioassays, namely, i) an immature rodent uterine assay; ii) an in vitro MCF-7 foci assay; and iii) an in vitro cytostatic assessment. […]
The cyclic form of GIP constitutes a disulfide-bridged monomer in solution, whereas GIP in the linear configuration is known to exist as an oligomeric trimer. […] Using three different human cancer cell lines (breast, prostate, or kidney) it was readily demonstrable that the monomeric cyclic form of the peptide produced 80-90% growth inhibition over a range of 10^−5 M to 10^−7 M when the sulforhodamine cytostatic 6-day assay was employed. […]

[2] = tested on: MCF-7 cells; assay: Estrogen-dependent MCF-7 foci formation assay; format: cell-based, human; design: % Inhibition Of Activity: MCF-7 foci formation: concentration or dose not given beside the values
Excerpt: Mizejewski et al., “Alpha-fetoprotein derived synthetic peptides: assay of an estrogen-modifying regulatory segment” Mol Cell Endocrinol 118:15-23 (1996). The P149 peptide inhibited the formation of tumor cell foci formed as a result of the accumulation of breast cancer cells which clump together due to loss of contact inhibition.

[3] = tested on: immature mouse uterine growth; assay: E2-activated immature mouse uterine growth assay; format: in vivo; design: % Inhibition Of Activity: Uterine Growth: concentration or dose not given beside the values; settings: for Inhibition in the mouse uterine assay: linear versus cyclic configuration
Description: as §1, with “peptide=P327. […]” for “peptide=P327.”

[4] = tested on: immature mouse uterine growth; assay: E2-activated immature mouse uterine growth assay; format: in vivo; design: concentration or dose not given beside the values

Molecule | Inhibition in the in vitro cytostatic assay [1] | Inhibition in the MCF-7 foci-assay ([2]; linear versus cyclic configuration) | Inhibition in the mouse uterine assay [3] | Inhibition in the mouse uterine assay ([3]; listed as cyclic peptide) | % Inhibition Of Activity: MCF-7 foci formation [2] [%] | % Inhibition Of Activity: Uterine Growth ([3]; mouse, in vivo) [%] | % Inhibition Of Activity: Uterine Growth, Enzymatic Fragments [4] [%]
CC[C@H](C)[C@H](NC(=O)[C@@H]1CSSC[C@H](NC(=O)[C@H](C)NC(=O)[C@H](CC(C)C)NC(=O)[C@H](CC(C)C)NC(=O)[C@H](CCCCN)NC(=O)[C@H](CC(=O)O)NC(=O)[C@H](CCC(=O)O)NC(=O)[C@H](CO)NC(=O)[C@@H](N)CC(C)C)C(=O)NCC(=O)N[C@@H](CCC(=O)O)C(=O)NCC(=O)N[C@@H](C)C(=O)N[C@@H](C)C(=O)N[C@@H](CC(=O)O)C(=O)N[C@@H]([C@@H](C)CC)C(=O)N[C@@H]([C@@H](C)CC)C(=O)N[C@@H]([C@@H](C)CC)C(=O)NCC(=O)N[C@@H](Cc2c[nH]cn2)C(=O)N[C@@H](CC(C)C)C(=O)N1)C(=O)N[C@@H](CCCNC(=N)N)C(=O)N[C@@H](Cc1c[nH]cn1)C(=O)N[C@@H](CCC(=O)O)C(=O)N[C@@H](CCSC)C(=O)N[C@H](C(=O)N1CCC[C@H]1C(=O)N[C@H](C(=O)N[C@@H](CC(N)=O)C(=O)N1CCC[C@H]1C(=O)NCC(=O)N[C@H](C(=O)O)C(C)C)C(C)C)[C@@H](C)O [Cyclic GIP] (HELM PEPTIDE1{L.S.E.D.K.L.L.A.C.G.E.G.A.A.D.I.I.I.G.H.L.C.I.R.H.E.M.T.P.V.N.P.G.V}$PEPTIDE1,PEPTIDE1,9:R3-22:R3$$$V2.0; N-terminus and C-terminus assumed) | 80-90% | 20-25% | 20-25% | only marginally inhibitory | – | – | –
KDFIHKQGVALQTMKQELINLVKELVKPQIEAVADFSGLL (listed as Homo sapiens) [P192, reference compound] | – | – | – | – | 0 | 0 | 0

— patent US20060111289A1, “Compositions and methods of using Alpha-fetoprotein growth inhibitory peptides” (Serometrix, LLC,, priority 2004, published 2006)
